pIC50: −log10 of the molar value. The source made the active and inactive calls. The rule behind the calls is not given here.
How the values were obtained:
SH-SY5Y [1] = assay: Cytotoxicity against human SH-SY5Y cells assessed as LDH release at 10 uM after 24 hrs; type: cell-based
[2] = Cytotoxicity against human SH-SY5Y cells assessed as cell viability at 100 uM after 24 hrs; type: cell-based; settings: read-out: Activity
[3] = Cytotoxicity against human HepG2 cells assessed as cell viability at 100 uM after 24 hrs; type: cell-based; settings: read-out: Activity
SH-SY5Y [4] = assay: Cytotoxicity against human SH-SY5Y cells assessed as LDH release at 100 uM after 24 hrs; type: cell-based
[5] = Cytotoxicity against human SH-SY5Y cells assessed as cell viability at 10 uM after 24 hrs; type: cell-based; settings: read-out: Activity
[6] = Inhibition of amyloid beta (1-40) self-aggregation at 25 uM by thioflavin T fluorescence assay
[7] = Cytotoxicity against human HepG2 cells assessed as cell viability at 10 uM after 24 hrs; type: cell-based; settings: read-out: Activity
Acetylcholinesterase = target: T1, Acetylcholinesterase (Bos taurus, UniProt P23795)
T1 sequence (P23795 whole entry): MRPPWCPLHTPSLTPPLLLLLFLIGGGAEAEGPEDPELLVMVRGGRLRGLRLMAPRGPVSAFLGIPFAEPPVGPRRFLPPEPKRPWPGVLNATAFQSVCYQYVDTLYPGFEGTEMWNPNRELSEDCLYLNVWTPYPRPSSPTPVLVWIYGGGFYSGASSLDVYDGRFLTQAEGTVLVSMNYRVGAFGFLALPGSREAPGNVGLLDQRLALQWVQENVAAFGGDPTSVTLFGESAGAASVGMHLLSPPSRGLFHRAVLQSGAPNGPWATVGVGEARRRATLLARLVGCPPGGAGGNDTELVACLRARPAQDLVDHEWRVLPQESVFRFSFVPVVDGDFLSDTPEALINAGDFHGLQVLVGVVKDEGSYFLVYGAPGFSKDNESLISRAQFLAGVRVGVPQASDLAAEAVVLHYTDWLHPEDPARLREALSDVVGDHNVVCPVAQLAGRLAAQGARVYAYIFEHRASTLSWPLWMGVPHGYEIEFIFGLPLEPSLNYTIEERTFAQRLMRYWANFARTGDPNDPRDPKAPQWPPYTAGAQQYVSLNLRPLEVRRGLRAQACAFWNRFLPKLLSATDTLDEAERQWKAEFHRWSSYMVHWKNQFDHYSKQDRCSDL
Description: Inhibition of bovine AChE by Elman's method

[8] = target: Cholinesterase (Equus caballus) (UniProt P81908); assay: Inhibition of equine serum BChE at 100 uM by Ellman's method
Chain of Cholinesterase (Equus caballus) (P81908 whole entry): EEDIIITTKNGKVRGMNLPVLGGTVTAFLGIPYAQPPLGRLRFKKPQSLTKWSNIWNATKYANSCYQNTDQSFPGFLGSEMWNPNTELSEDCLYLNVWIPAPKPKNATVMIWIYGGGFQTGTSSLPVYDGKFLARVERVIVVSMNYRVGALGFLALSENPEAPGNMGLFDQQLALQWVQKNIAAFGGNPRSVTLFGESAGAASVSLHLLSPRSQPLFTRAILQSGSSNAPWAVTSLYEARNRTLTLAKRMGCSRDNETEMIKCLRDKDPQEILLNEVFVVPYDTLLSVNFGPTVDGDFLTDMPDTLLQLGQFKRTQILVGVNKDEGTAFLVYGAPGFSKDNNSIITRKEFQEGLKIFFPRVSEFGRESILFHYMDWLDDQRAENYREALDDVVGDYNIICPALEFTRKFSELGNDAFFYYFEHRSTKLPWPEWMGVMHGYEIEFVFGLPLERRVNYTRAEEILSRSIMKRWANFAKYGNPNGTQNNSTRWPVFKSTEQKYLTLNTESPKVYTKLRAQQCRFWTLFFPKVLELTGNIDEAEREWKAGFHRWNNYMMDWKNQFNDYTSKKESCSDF

HepG2 [9] = assay: Cytotoxicity against human HepG2 cells assessed as LDH release at 10 uM after 24 hrs; type: cell-based; settings: hepg2, 24 h
HepG2 [10] = assay: Cytotoxicity against human HepG2 cells assessed as LDH release at 100 uM after 24 hrs; type: cell-based; settings: hepg2, 24 h

SMILES | Activity (SH-SY5Y [1]) [%] | viability at 24 h, 100 µM [2] [%] | viability at 24 h, 100 µM [3] [%] | Activity (SH-SY5Y [4]) [%] | viability at 24 h, 10 µM [5] [%] | inhibition [6] | viability at 24 h, 10 µM [7] [%] | pIC50 (Acetylcholinesterase) | inhibition [8] | Activity (HepG2 [9]) [%] | Activity (HepG2 [10]) [%]
O=c1cc2c3c4c(cc[n+]3CCC2)c2cc(O)ccc2n14.[Cl-] | -1.86 | 98.3 | 101 | 0.97 | 96.7 | Active | 98.7 | 4.90 | inactive | 0.13 | 0.56
O=c1cc2c3c4c(cc[n+]3CCC2)c2ccccc2n14.[Cl-] [INFRACTOPICRIN] | -0.07 | 97.7 | 99.1 | 1.33 | 97.1 | 50% | 100 | 5.01 | inactive | 2.23 | 1.48
